pIC50: −log10 of the molar value.
Assays:
Renca = experiment: In vitro cell viability (CTG), Renca; format: cell-based, Mouse; settings: Renca cells, 72 hours, CTG assay
Protocol: (§1) Collect cells in the exponential growth phase and count viable cells separately using a cell counter. Adjust the cell suspension to an appropriate concentration with the corresponding culture medium. Add 90 μL of the cell suspension to each well of a 96-well cell culture plate, with 3 replicate wells containing 5000 cells/well. Place the plate in an incubator at 37° C. with 5% CO2 overnight.
(§2) On the second day, add 10 μL of dimyricetin diselenide and cisplatin to the corresponding wells. The highest final concentration of dimyricetin diselenide is 300 μg/ml (i.e., 379 μM), and the highest final concentration of cisplatin is 300 μM. A total of 9 concentrations are prepared with a 3-fold dilution.
(§3) After 72 hours, detect cell viability using the CTG assay.
(§4) Using GraphPad Prism 8.0 software, an S-shaped dose-survival curve was plotted with log (inhibitor) as the x-axis and response as the y-axis, adopting the Variable slope (four parameters) model to calculate the IC50 value.

PANC-1 = experiment: In vitro cell viability (CTG), PANC-1; format: cell-based, Human; settings: PANC-1 cells, 72 hours, CTG assay
Protocol: as §1, §2, §3, §4

CT-26.WT = experiment: In vitro cell viability (CTG), CT-26.WT; format: cell-based, Mouse; settings: CT-26.WT cells, 72 hours, CTG assay
Protocol: as §1, §2, §3, §4

Panc 02 = experiment: In vitro cell viability (CTG), Panc 02; format: cell-based, Mouse; settings: Pance 02 cells, 72 hours, CTG assay
Protocol: as §1, §2, §3, §4

LL/2(LLC1) = experiment: In vitro cell viability (CTG), LL/2(LLC1); format: cell-based, Mouse; settings: LL/2(LLC1) cells, 72 hours, CTG assay
Protocol: as §1, §2, §3, §4

HCT116 = experiment: In vitro cell viability (CTG), HCT116; format: cell-based, Human; settings: HCT116 cells, 72 hours, CTG assay
Protocol: as §1, §2, §3, §4

[1] = tested on: H22 subcutaneous transplanted tumor; experiment: Pharmacodynamics of subcutaneous transplanted tumor in vivo (H22); parameters: species or system BALB/c mice
Protocol: • Animal species and strain: BALB/c mice • Drug administration history: None • Gender and age: Female, 6-7 weeks old • Breeder/supplier: Shanghai Jihui Laboratory Animal Breeding Co., Ltd. or other qualified suppliers • Experimental facility: Pengli Biology Animal Facility • Acclimation period: 3-7 days • Number of animals: 42 • Housing: SPF (Specific Pathogen Free) area • Indoor temperature: 20-26° C. • Indoor relative humidity: 40-70% • Lighting: Fluorescent lighting, 12 hours on (08:00-20:00) and 12 hours off • Animal housing: 2-6 mice per cage (same treatment group) • Food: Ad libitum access to irradiated feed (supplied by Jiangsu Xie Tong Pharmaceutical Bioengineering Co., Ltd., China) • Water: Ad libitum access to drinking water (tap water treated by reverse osmosis or autoclaving and acidified)
BALB/c mice were purchased from Shanghai Jihui Laboratory Animal Breeding Co., Ltd. for the H22 efficacy experiment. The animals were free of specific pathogens and arrived at Pengli Biology Animal Facility at approximately 5-6 weeks of age. The proposed animal handling procedures for the experimental protocol will be reviewed and approved by the IACUC (Institutional Animal Care and Use Committee) of Pengli Biology before the start of the experiment.
The H22 cell line used in this experiment was cultured in RPMI-1640 medium supplemented with 10% FBS in a CO2 incubator at 37° C. Prior to continuous culturing for ten passages, approximately 3×10^6 H22 cells were suspended in PBS and subcutaneously inoculated into each mouse at a volume of 100 μL. Mice were anesthetized with 3-4% isoflurane before inoculation.
When tumors grew to an average size of approximately 50-80 mm3, tumor-bearing mice were randomly divided into 4 groups of 8 mice each based on body weight and tumor size. The day of group assignment and drug administration was defined as Day 0. The grouping and dosing regimen are outlined in the table below.
Tumor Volume: Measure the tumor volume twice weekly after grouping for a consecutive 4 weeks. The calculation method for tumor volume (V) is as follows: V=(Length×Width^2)/2. The relative tumor volume (RTV) for each nude mouse is calculated as: RTV=Vt/V0, where Vt is the measured volume for each day and V0 is the volume at the start of treatment.
Relative Tumor Proliferation Rate (T/C %): Used to evaluate the antitumor activity of the drug. The relative tumor proliferation rate T/C (%) is calculated as the mean RTV of the treatment group (T) divided by the mean RTV of the negative control group (C), multiplied by 100%.
Tumor Growth Inhibition (TG1%): TG1%=(1−T/C)×100%, where T is the mean RTV of the treatment group and C is the mean RTV of the negative control group.

B16-F10 = experiment: In vitro cell viability (CTG), B16-F10; format: cell-based, Mouse; settings: B16-F10 cells, 72 hours, CTG assay
Protocol: as §1, §2, §3, §4

EMT-6 = experiment: In vitro cell viability (CTG), EMT-6; format: cell-based, Mouse; settings: EMT-6 cells, 72 hours, CTG assay
Protocol: as §1, §2, §3, §4

Hep G2 = experiment: In vitro cell viability (CTG), Hep G2; format: cell-based, Human; settings: Hep G2 cells, 72 hours, CTG assay
Protocol: as §1, §2, §3, §4

RM-1 = experiment: In vitro cell viability (CTG), RM-1; format: cell-based, Mouse; settings: RM-1 cells, 72 hours, CTG assay
Protocol: as §1, §2, §3, §4

MBT-2 = experiment: In vitro cell viability (CTG), MBT-2; format: cell-based, Mouse; settings: MBT-2 cells, 72 hours, CTG assay
Protocol: as §1, §2, §3, §4

HCC827 = experiment: In vitro cell viability (CTG), HCC827; format: cell-based, Human; settings: HCC827 cells, 72 hours, CTG assay
Protocol: as §1, §2, §3, §4

MFC = experiment: In vitro cell viability (CTG), MFC; format: cell-based, Mouse; settings: MFC cells, 72 hours, CTG assay
Protocol: as §1, §2, §3, §4

786-O = experiment: In vitro cell viability (CTG), 786-O; format: cell-based, Human; settings: 786-O cells, 72 hours, CTG assay
Protocol: as §1, §2, §3, §4

DU145 = experiment: In vitro cell viability (CTG), DU145; format: cell-based, Human; settings: DU145 cells, 72 hours, CTG assay
Protocol: as §1, §2, §3, §4

A375 = experiment: In vitro cell viability (CTG), A375; format: cell-based, Human; settings: A375 cells, 72 hours, CTG assay
Protocol: as §1, §2, §3, §4

HCC1954 = experiment: In vitro cell viability (CTG), HCC1954; format: cell-based, Human; settings: HCC1954 cells, 72 hours, CTG assay
Protocol: as §1, §2, §3, §4

MKN45 = experiment: In vitro cell viability (CTG), MKN45; format: cell-based, Human; settings: MKN45 cells, 72 hours, CTG assay
Protocol: as §1, §2, §3, §4

T24 = experiment: In vitro cell viability (CTG), T24; format: cell-based, Human; settings: T24 cells, 72 hours, CTG assay
Protocol: as §1, §2, §3, §4

H22 = experiment: In vitro cell viability (CTG), H22; format: cell-based, Mouse; settings: H22 cells, 72 hours, CTG assay
Protocol: as §1, §2, §3, §4

SK-OV-3 = experiment: In vitro cell viability (CTG), SK-OV-3; format: cell-based, Human; settings: SK-OV-3 cells, 72 hours, CTG assay
Protocol: as §1, §2, §3, §4

tumor cells = experiment: In vitro cell experiment, overall statement on the tumor cell panel; format: cell-based; settings: 21 tumor cell lines, 72 hours, CTG assay
Protocol: as §1, §2, §3, §4

Compound: N.N.[Cl][Pt][Cl] [Cisplatin, reference compound]
- pIC50 (Renca): 5.22
- pIC50 (PANC-1): 4.86
- pIC50 (CT-26.WT): 5.13
- pIC50 (Panc 02): 5.01
- pIC50 (LL/2(LLC1)): 4.98
- pIC50 (HCT116): 5.15
- TV (tumor volume) ([1]; G2, 1 mg/kg i.v. BIW, 0 day (baseline)): 75.96 mm^3
- TGI (tumor growth inhibition) ([1]; G2, 1 mg/kg i.v. BIW, 3 days): −3.49%
- TV (tumor volume) ([1]; G2, 1 mg/kg i.v. BIW, 3 days): 288.49 mm^3
- TGI (tumor growth inhibition) ([1]; G2, 1 mg/kg i.v. BIW, 5 days): 6.13%
- TV (tumor volume) ([1]; G2, 1 mg/kg i.v. BIW, 5 days): 351.18 mm^3
- TGI (tumor growth inhibition) ([1]; G2, 1 mg/kg i.v. BIW, 7 days): 22.78%
- TV (tumor volume) ([1]; G2, 1 mg/kg i.v. BIW, 7 days): 597.48 mm^3
- TGI (tumor growth inhibition) ([1]; G2, 1 mg/kg i.v. BIW, 10 days): 30.23%
- TV (tumor volume) ([1]; G2, 1 mg/kg i.v. BIW, 10 days): 821.76 mm^3
- TGI (tumor growth inhibition) ([1]; G2, 1 mg/kg i.v. BIW, 12 days): 36.46%
- TV (tumor volume) ([1]; G2, 1 mg/kg i.v. BIW, 12 days): 1081.49 mm^3
- TGI (tumor growth inhibition) ([1]; G2, 1 mg/kg i.v. BIW, 14 days): 39.56%
- TV (tumor volume) ([1]; G2, 1 mg/kg i.v. BIW, 14 days): 1627.00 mm^3
- pIC50 (B16-F10): 4.77
- pIC50 (EMT-6): 5.18
- pIC50 (Hep G2): 5.07
- pIC50 (RM-1): 5.42
- pIC50 (MBT-2): 5.00
- pIC50 (HCC827): 4.82
- pIC50 (MFC): 5.22
- pIC50 (786-O): 5.43
- pIC50 (DU145): 5.44
- pIC50 (A375): 5.27
- pIC50 (HCC1954): 4.88
- pIC50 (MKN45): 5.17
- pIC50 (T24): 5.43
- pIC50 (H22): 5.66

Compound: Dimyricetin-yl-diselenide
- pIC50 (Renca): 5.29
- pIC50 (PANC-1): 4.99
- pIC50 (SK-OV-3): 5.19
- pIC50 (CT-26.WT): 5.25
- inhibitory effect on tumor cells in vitro (tumor cells): significant inhibitory effect
- pIC50 (Panc 02): 4.84
- pIC50 (LL/2(LLC1)): 4.84
- pIC50 (HCT116): 5.26
- tumor inhibition compared with the positive control (cisplatin) ([1]; 40 mg/kg dose group): better tumor inhibition than the positive control
- TV (tumor volume) ([1]; G3, 40 mg/kg s.c. QD, 0 day (baseline)): 75.71 mm^3
- TGI (tumor growth inhibition) ([1]; G3, 40 mg/kg s.c. QD, 3 days): 9.88%
- TV (tumor volume) ([1]; G3, 40 mg/kg s.c. QD, 3 days): 257.17 mm^3
- TGI (tumor growth inhibition) ([1]; G3, 40 mg/kg s.c. QD, 5 days): 5.58%
- TV (tumor volume) ([1]; G3, 40 mg/kg s.c. QD, 5 days): 355.24 mm^3
- TGI (tumor growth inhibition) ([1]; G3, 40 mg/kg s.c. QD, 7 days): 34.02%
- TV (tumor volume) ([1]; G3, 40 mg/kg s.c. QD, 7 days): 532.85 mm^3
- TGI (tumor growth inhibition) ([1]; G3, 40 mg/kg s.c. QD, 10 days): 41.86%
- TV (tumor volume) ([1]; G3, 40 mg/kg s.c. QD, 10 days): 711.79 mm^3
- TGI (tumor growth inhibition) ([1]; G3, 40 mg/kg s.c. QD, 12 days): 38.64%
- TV (tumor volume) ([1]; G3, 40 mg/kg s.c. QD, 12 days): 1066.44 mm^3
- TGI (tumor growth inhibition) ([1]; G3, 40 mg/kg s.c. QD, 14 days): 60.23%
- TV (tumor volume) ([1]; G3, 40 mg/kg s.c. QD, 14 days): 1108.65 mm^3
- TV (tumor volume) ([1]; G4, 20 mg/kg s.c. QD, 0 day (baseline)): 75.31 mm^3
- TGI (tumor growth inhibition) ([1]; G4, 20 mg/kg s.c. QD, 3 days): 29.01%
- TV (tumor volume) ([1]; G4, 20 mg/kg s.c. QD, 3 days): 218.25 mm^3
- TGI (tumor growth inhibition) ([1]; G4, 20 mg/kg s.c. QD, 5 days): 19.28%
- TV (tumor volume) ([1]; G4, 20 mg/kg s.c. QD, 5 days): 314.27 mm^3
- TGI (tumor growth inhibition) ([1]; G4, 20 mg/kg s.c. QD, 7 days): 32.35%
- TV (tumor volume) ([1]; G4, 20 mg/kg s.c. QD, 7 days): 544.04 mm^3
- TGI (tumor growth inhibition) ([1]; G4, 20 mg/kg s.c. QD, 10 days): 39.14%
- TV (tumor volume) ([1]; G4, 20 mg/kg s.c. QD, 10 days): 741.18 mm^3
- TGI (tumor growth inhibition) ([1]; G4, 20 mg/kg s.c. QD, 12 days): 29.67%
- TV (tumor volume) ([1]; G4, 20 mg/kg s.c. QD, 12 days): 1210.83 mm^3
- TGI (tumor growth inhibition) ([1]; G4, 20 mg/kg s.c. QD, 14 days): 43.53%
- TV (tumor volume) ([1]; G4, 20 mg/kg s.c. QD, 14 days): 1542.11 mm^3
- inhibitory effect on the liver cancer tumor model in vivo ([1]; H22 model, 40 and 20 mg/kg s.c.): significant inhibitory effect
- pIC50 (B16-F10): 4.88
- pIC50 (EMT-6): 5.50
- pIC50 (Hep G2): 4.90
- pIC50 (RM-1): 5.29
- pIC50 (MBT-2): 4.97
- pIC50 (HCC827): 5.00
- pIC50 (MFC): 5.02
- pIC50 (786-O): 5.29
- pIC50 (DU145): 5.06
- pIC50 (A375): 5.28
- pIC50 (HCC1954): 5.01
- pIC50 (MKN45): 4.92
- pIC50 (T24): 5.11
- pIC50 (H22): 5.18

Source: patent publication US20250127753A1, “PHARMACEUTICAL APPLICATION OF DIMYRICETIN-YL-DISELENIDE IN TUMORS” (Shanghai Spark Pharmaceutical Co., Ltd., priority 2023, published 2025)
